Data reported in the supplement of paper PMC6045584.
± gives the standard deviation of the averaged measurements.

How the values were obtained:
NILOTINIB = compound: Cc1cn(-c2cc(NC(=O)c3ccc(C)c(Nc4nccc(-c5cccnc5)n4)c3)cc(C(F)(F)F)c2)cn1 [NILOTINIB]; test: surviving fraction relative to DMSO-only wells; higher = less growth inhibition; conditions: exposure time: 5 days
In short: (§1)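 For each tumour cell line, log-phase cells were put into 384-well plates at 250–500 cells per well, then after 24 hours exposed continuously for five days to inhibitors at 0.5, 1, 5, 10, 50, 100, 500 and 1000 nM. Viability was assessed by CellTiter-Glo luminescence, with surviving fraction expressed relative to the median of DMSO-only wells. Lines were screened three times and retained only if replicate Pearson r exceeded 0.7 and median Z' exceeded 0.3.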

AFIMOXIFENE = compound: CC/C(=C(\c1ccc(O)cc1)c1ccc(OCCN(C)C)cc1)c1ccccc1 [AFIMOXIFENE]; test: as above; conditions: exposure time: 5 days
In short: as §1

| Test System | surviving fraction (NILOTINIB; 0.5 nM) | surviving fraction (NILOTINIB; 1 nM) | surviving fraction (NILOTINIB; 5 nM) | surviving fraction (NILOTINIB; 10 nM) | surviving fraction (NILOTINIB; 50 nM) | surviving fraction (NILOTINIB; 100 nM) | surviving fraction (NILOTINIB; 500 nM) | surviving fraction (NILOTINIB; 1000 nM) | surviving fraction (AFIMOXIFENE; 0.5 nM) | surviving fraction (AFIMOXIFENE; 1 nM) | surviving fraction (AFIMOXIFENE; 5 nM) | surviving fraction (AFIMOXIFENE; 10 nM) | surviving fraction (AFIMOXIFENE; 50 nM) | surviving fraction (AFIMOXIFENE; 100 nM) | surviving fraction (AFIMOXIFENE; 500 nM) | surviving fraction (AFIMOXIFENE; 1000 nM) |
| --- | --- | --- | --- | --- | --- | --- | --- | --- | --- | --- | --- | --- | --- | --- | --- | --- |
| MDAMB436 BREAST | 0.905 ± 0.076 | 1 ± 0.088 | 1 ± 0.017 | 0.964 ± 0.057 | 0.82 ± 0.087 | 0.915 ± 0.033 | 0.904 ± 0.03 | 0.78 ± 0.051 | 0.962 ± 0.085 | 0.99 ± 0.11 | 0.965 ± 0.087 | 1.03 ± 0.21 | 1.03 ± 0.11 | 1.08 ± 0.13 | 1.01 ± 0.066 | 1 ± 0.063 |
| MDAMB453 BREAST | 1 ± 0.045 | 0.998 ± 0.097 | 1.03 ± 0.077 | 1.05 ± 0.088 | 0.91 ± 0.02 | 0.925 ± 0.016 | 0.895 ± 0.0087 | 0.874 ± 0.068 | 1.09 ± 0.098 | 1.07 ± 0.07 | 1.11 ± 0.066 | 1.17 ± 0.16 | 1.1 ± 0.068 | 1.07 ± 0.029 | 1.07 ± 0.039 | 1.02 ± 0.026 |
| MDAMB468 BREAST | 0.908 ± 0.055 | 0.931 ± 0.043 | 0.935 ± 0.069 | 1.05 ± 0.024 | 0.927 ± 0.037 | 0.835 ± 0.0095 | 0.9353 ± 0.0015 | 0.927 ± 0.045 | 1.01 ± 0.021 | 0.991 ± 0.034 | 1.06 ± 0.054 | 1.09 ± 0.02 | 1.12 ± 0.077 | 1.21 ± 0.046 | 1.14 ± 0.024 | 1.05 ± 0.0095 |
| MFM223 BREAST | 1.11 ± 0.085 | 1.15 ± 0.12 | 1.08 ± 0.058 | 1.08 ± 0.056 | 0.798 ± 0.048 | 0.931 ± 0.15 | 0.9 ± 0.11 | 0.912 ± 0.13 | 1.28 ± 0.067 | 1.21 ± 0.043 | 1.19 ± 0.084 | 1.22 ± 0.13 | 1.2 ± 0.043 |  | 1.1 ± 0.062 | 0.932 ± 0.043 |
| MG63 BONE | 1.03 ± 0.04 | 1.04 ± 0.053 | 1.11 ± 0.042 | 1.13 ± 0.079 | 1.19 ± 0.043 | 1.23 ± 0.07 | 1.24 ± 0.047 | 1.28 ± 0.049 | 1.06 ± 0.04 | 1.04 ± 0.027 | 1.1 ± 0.048 | 1.07 ± 0.051 | 1.09 ± 0.05 | 1.05 ± 0.048 | 1.02 ± 0.036 | 1.02 ± 0.049 |
| MHM BONE | 1.01 ± 0.028 | 0.999 ± 0.05 | 1.09 ± 0.014 | 1.06 ± 0.028 | 1.11 ± 0.023 | 1.13 ± 0.025 | 1.135 ± 0.0021 | 1.19 ± 0.059 | 1.02 ± 0.021 | 1.03 ± 0.05 | 1.09 ± 0.049 | 1.07 ± 0.033 | 1.06 ± 0.025 | 1.06 ± 0.027 | 1.01 ± 0.022 | 1.02 ± 0.028 |
| NCIH441 LUNG | 1.08 ± 0.14 | 1.01 ± 0.024 | 1.11 ± 0.037 | 1.05 ± 0.043 | 0.986 ± 0.11 | 0.91 ± 0.17 | 0.874 ± 0.022 | 0.889 ± 0.064 | 1.06 ± 0.11 | 1.07 ± 0.12 | 1.04 ± 0.11 | 1.12 ± 0.12 | 1.08 ± 0.11 | 1.14 ± 0.024 | 1.23 ± 0.03 | 1.03 ± 0.13 |
| NOS1 BONE | 0.958 ± 0.048 | 1.11 ± 0.029 | 1.07 ± 0.093 | 1.21 ± 0.048 | 1.02 ± 0.045 | 0.849 ± 0.013 | 0.666 ± 0.019 | 0.606 ± 0.03 | 1.05 ± 0.094 | 1.16 ± 0.28 | 1.18 ± 0.08 | 1.27 ± 0.12 | 1.4 ± 0.15 | 1.21 ± 0.076 | 1.08 ± 0.072 | 0.973 ± 0.19 |
| NY BONE | 1.03 ± 0.038 | 1.04 ± 0.018 | 1.08 ± 0.025 | 1.1 ± 0.049 | 1.12 ± 0.043 | 1.12 ± 0.03 | 1.01 ± 0.06 | 1.01 ± 0.045 | 1.03 ± 0.041 | 1.026 ± 0.0089 | 1.1 ± 0.023 | 1.08 ± 0.027 | 1.11 ± 0.055 | 1.082 ± 0.006 | 0.972 ± 0.0056 | 0.9223 ± 0.0081 |
| OS25HAL BONE | 1.02 ± 0.034 | 0.973 ± 0.028 | 1.01 ± 0.037 | 0.997 ± 0.061 | 1.03 ± 0.019 | 0.944 ± 0.055 | 0.85 ± 0.05 | 0.795 ± 0.055 | 1.02 ± 0.036 | 1.04 ± 0.029 | 1.04 ± 0.014 | 1.02 ± 0.051 | 1.18 ± 0.044 | 1.09 ± 0.021 | 1.04 ± 0.084 | 1.04 ± 0.043 |
| OSHN BONE | 1.02 ± 0.017 | 1.01 ± 0.023 | 1.06 ± 0.025 | 1.01 ± 0.029 | 0.996 ± 0.034 | 1 ± 0.033 | 0.967 ± 0.02 | 0.96 ± 0.026 | 1.09 ± 0.044 | 1.08 ± 0.023 | 1.1 ± 0.035 | 1.07 ± 0.034 | 1.12 ± 0.016 | 1.146 ± 0.0071 | 1.15 ± 0.016 | 1.1 ± 0.031 |
| PCI30 HEADNECK | 0.952 ± 0.075 | 0.888 ± 0.045 | 1.04 ± 0.06 | 1.01 ± 0.05 | 0.921 ± 0.072 | 0.871 ± 0.056 | 1.08 ± 0.073 | 0.965 ± 0.063 | 1.09 ± 0.017 | 1.07 ± 0.062 | 1.07 ± 0.06 | 1.06 ± 0.023 | 1.12 ± 0.045 | 1.05 ± 0.022 | 0.99 ± 0.091 | 1.02 ± 0.032 |
| RDES SOFT TISSUE | 1.14 ± 0.097 | 1.25 ± 0.058 | 0.966 ± 0.14 | 1.14 ± 0.14 | 0.847 ± 0.16 | 0.78 ± 0.026 | 0.821 ± 0.2 | 0.944 ± 0.13 | 1.25 ± 0.09 | 1.16 ± 0.052 | 1.16 ± 0.034 | 1.14 ± 0.095 | 1.14 ± 0.14 | 1.15 ± 0.062 | 1.59 ± 0.34 | 0.955 ± 0.11 |
| S68 BREAST | 1 ± 0.3 | 1.1 ± 0.14 | 1.34 ± 0.29 | 1.06 ± 0.32 | 0.643 ± 0.041 | 0.846 ± 0.29 | 0.449 ± 0.18 | 0.544 ± 0.2 | 0.947 ± 0.19 | 0.829 ± 0.24 | 1.08 ± 0.052 | 0.952 ± 0.18 | 1.39 ± 0.13 | 1.21 ± 0.11 | 0.916 ± 0.047 | 0.805 ± 0.065 |
| SAOS2 BONE | 1.13 ± 0.064 | 1.09 ± 0.038 | 1.19 ± 0.035 | 1.21 ± 0.062 | 0.963 ± 0.072 | 0.912 ± 0.091 | 0.91 ± 0.016 | 0.905 ± 0.06 | 1.18 ± 0.064 | 1.14 ± 0.068 | 1.23 ± 0.051 | 1.18 ± 0.052 | 1.21 ± 0.034 | 1.2 ± 0.16 | 1.12 ± 0.14 | 0.985 ± 0.042 |
| SCC003 HEADNECK | 1.1 ± 0.048 | 1.03 ± 0.14 | 1.1 ± 0.037 | 1.04 ± 0.02 | 0.873 ± 0.38 | 1 ± 0.23 | 0.906 ± 0.24 | 0.995 ± 0.13 | 1.127 ± 0.0056 | 1.14 ± 0.015 | 1.1 ± 0.091 | 1.07 ± 0.057 | 1.13 ± 0.055 | 1.1 ± 0.091 | 1.151 ± 0.0068 | 1.11 ± 0.042 |
| SCC36 HEADNECK | 1.04 ± 0.035 | 1.02 ± 0.043 | 1.06 ± 0.15 | 1.09 ± 0.046 | 0.839 ± 0.048 | 0.849 ± 0.04 | 0.74 ± 0.052 | 0.79 ± 0.038 | 1.07 ± 0.16 | 0.969 ± 0.026 | 1.13 ± 0.046 | 1.1 ± 0.047 | 1.07 ± 0.047 | 1.1 ± 0.078 | 0.883 ± 0.06 | 0.732 ± 0.074 |
| SCC47 HEADNECK | 1.07 ± 0.05 | 1.06 ± 0.045 | 1.15 ± 0.064 | 1.08 ± 0.025 | 1.041 ± 0.0046 | 1.04 ± 0.074 | 0.95 ± 0.037 | 0.932 ± 0.019 | 1.26 ± 0.02 | 1.2 ± 0.038 | 1.31 ± 0.11 | 1.27 ± 0.13 | 1.31 ± 0.085 | 1.29 ± 0.12 | 1.24 ± 0.047 | 1.2 ± 0.055 |
| SCC90 HEADNECK | 0.993 ± 0.034 | 1 ± 0.02 | 1.07 ± 0.17 | 1.201 ± 0.0059 | 0.966 ± 0.13 | 0.764 ± 0.045 | 0.924 ± 0.069 | 0.867 ± 0.1 | 1.14 ± 0.052 | 1.12 ± 0.11 | 1.1 ± 0.045 | 1.19 ± 0.068 | 1.12 ± 0.074 | 1.09 ± 0.059 | 1.11 ± 0.025 | 1.05 ± 0.075 |
